“And” between values parts separate entries of the source, which are not always exact repeats. Equal values may be shown once. Toxic doses and inconclusive results are not listed.
Tested on: CAF1 mice, leiomyosarcoma No.2 ip, survival T/C%
Assay: NCI In Vivo Anticancer Drug Screen. Data for tumor model Leiomyosarcoma (No. 2) (intraperitoneal) in CAF1 mice
Conditions: endpoint: mean survival time, higher = longer survival
Protocol: The antitumor activity of compounds was measured in mice bearing transplantable tumors. Survival or tumor size were measured and the results are expressed as the measurement made in the treated group (T) divided by the measurement made in the vehicle treated control group (C). The tumor model used in this assay is Leiomyosarcoma (No. 2) (intraperitoneal) in CAF1 mice

[1] = dose: 25.0 mg/kg/injection, schedule: Q01DX010 (ip), vehicle: saline
[2] = dose: 50.0 mg/kg/injection, schedule: Q01DX010 (ip), vehicle: saline
[3] = dose: 2.0 mg/kg/injection, schedule: Q01DX010 (ip), vehicle: saline
[4] = dose: 8.0 mg/kg/injection, schedule: Q01DX010 (ip), vehicle: saline
[5] = dose: 16.0 mg/kg/injection, schedule: Q01DX010 (ip), vehicle: saline
[6] = dose: 12.5 mg/kg/injection, schedule: Q01DX010 (sc), vehicle: steriod suspending solution
[7] = dose: 25.0 mg/kg/injection, schedule: Q01DX010 (sc), vehicle: steriod suspending solution
[8] = dose: 50.0 mg/kg/injection, schedule: Q01DX010 (sc), vehicle: steriod suspending solution
[9] = dose: 250.0 micrograms/kg/injection, schedule: Q01DX010 (ip), vehicle: saline
[10] = dose: 500.0 micrograms/kg/injection, schedule: Q01DX010 (ip), vehicle: saline
[11] = dose: 5.0 mg/kg/injection, schedule: Q01DX010 (ip), vehicle: saline
[12] = dose: 10.0 mg/kg/injection, schedule: Q01DX010 (ip), vehicle: saline
[13] = dose: 3.0 mg/kg/injection, schedule: Q01DX010 (ip), vehicle: saline
[14] = dose: 6.0 mg/kg/injection, schedule: Q01DX010 (ip), vehicle: saline
[15] = dose: 12.0 mg/kg/injection, schedule: Q01DX010 (ip), vehicle: saline
[16] = dose: 20.0 mg/kg/injection, schedule: Q01DX010 (ip), vehicle: saline
[17] = dose: 40.0 mg/kg/injection, schedule: Q01DX010 (ip), vehicle: saline

With `O=c1c(O)cccc2cc(O)c(O)c(O)c12` the T/C [1] was 88 % of control and the T/C [2] was 102 % of control.
With `O=C(Nc1ccc(NC2=NCCN2)cc1)c1ccc(C(=O)Nc2ccc(NC3=NCCN3)cc2)cc1` the T/C [3] was 103 % of control and 123 % of control, the T/C [4] was 123 % of control and the T/C [5] was 107 % of control.
`C[C@]12C=CC(=O)C=C1CC[C@@H]1[C@@H]2[C@@H](O)C[C@@]2(C)[C@H]1CC[C@]2(O)C(=O)CO` was tested, and the T/C [6] was 86 % of control and 107 % of control, the T/C [7] was 92 % of control and 93 % of control and the T/C [8] was 100 % of control and 107 % of control.
With `COc1ccc2c(c1OC)C(=O)O[C@@H]2[C@H]1c2c(cc3c(c2OC)OCO3)CCN1C` the T/C (dose: 31.3 mg/kg/injection, schedule: Q01DX010 (ip), vehicle: saline) was 92 % of control.
With `O[C@H](CN1CC1)[C@@H](O)CN1CC1` the T/C (dose: 125.0 micrograms/kg/injection, schedule: Q01DX010 (ip), vehicle: saline) was 150 % of control, the T/C [9] was 179 % of control and the T/C [10] was 204 % of control.
With `CN1CC[C@]23c4c5ccc(O)c4O[C@H]2C(=O)CC[C@H]3[C@H]1C5` the T/C (dose: 4.0 mg/kg/injection, schedule: Q01DX010 (ip), vehicle: saline) was 96 % of control, the T/C [4] was 92 % of control and the T/C [5] was 104 % of control. For the same molecule, the T/C (dose: 32.0 mg/kg/injection, schedule: Q01DX010 (ip), vehicle: saline) was 92 % of control.
`O=c1[nH]c(=O)n(C2CC(O)C(CO)O2)cc1F` (stereo not given) was tested, and the T/C [11] was 118 % of control and the T/C [12] was 118 % of control.
In the case of `Nc1nc(N)c2nc(CNc3ccc(C(=O)NC(CCC(=O)O)C(=O)O)cc3)cnc2n1` (stereo not given), the T/C (dose: 0.03 mg/kg/injection, schedule: Q01DX010 (ip), vehicle: other) is reported as 103 % of control and 110 % of control, the T/C (dose: 0.05 mg/kg/injection, schedule: Q01DX010 (ip), vehicle: other) is reported as 106 % of control and the T/C (dose: 0.1 mg/kg/injection, schedule: Q01DX010 (ip), vehicle: other) is reported as 106 % of control and 107 % of control. For the same molecule, the T/C (dose: 0.2 mg/kg/injection, schedule: Q01DX010 (ip), vehicle: other) was 110 % of control.
In the case of `N=C(N)c1ccc(Nc2ccc(C(=N)N)cc2)cc1`, the T/C [13] is reported as 108 % of control, the T/C [14] is reported as 104 % of control and the T/C [15] is reported as 100 % of control.
`C[C@H]1C(=O)O[C@@H]2CCN3CC=C(COC(=O)[C@](C)(O)[C@@]1(C)O)[C@H]23` was tested, and the T/C (dose: 3.13 mg/kg/injection, schedule: Q01DX010 (ip), vehicle: saline) was 100 % of control, the T/C (dose: 6.25 mg/kg/injection, schedule: Q01DX010 (ip), vehicle: saline) was 94 % of control and 109 % of control and the T/C (dose: 12.5 mg/kg/injection, schedule: Q01DX010 (ip), vehicle: saline) was 86 % of control and 118 % of control. The T/C [1] was 108 % of control and 118 % of control.
With `CC(=O)NC1=C(N2CC2)C(=O)C(NC(C)=O)=C(N2CC2)C1=O` the T/C (dose: 0.25 mg/kg/injection, schedule: Q01DX010 (ip), vehicle: saline) was 163 % of control, the T/C (dose: 0.5 mg/kg/injection, schedule: Q01DX010 (ip), vehicle: saline) was 222 % of control and the T/C (dose: 1.0 mg/kg/injection, schedule: Q01DX010 (ip), vehicle: saline) was 300 % of control. For the same molecule, the T/C [3] was 100 % of control, the T/C [9] was 195 % of control and the T/C [10] was 195 % of control. The T/C (dose: 1000.0 micrograms/kg/injection, schedule: Q01DX010 (ip), vehicle: saline) was 300 % of control.
In the case of `O=C(Nc1ccc(C2=NCCN2)cc1)c1ccc(C(=O)Nc2ccc(C3=NCCN3)cc2)c([N+](=O)[O-])c1`, the T/C [14] is reported as 121 % of control and the T/C [4] is reported as 113 % of control.
For `S=P(N1CCOCC1)(N1CC1)N1CC1`, the T/C (dose: 2.5 mg/kg/injection, schedule: Q01DX010 (ip), vehicle: saline) was 96 % of control and 104 % of control, the T/C [11] was 116 % of control and 117 % of control and the T/C [12] was 153 % of control and 179 % of control. The T/C [16] was 164 % of control.
`Nc1ncnc2[nH]ncc12` was tested, and the T/C (dose: 1.5 mg/kg/injection, schedule: Q01DX010 (ip), vehicle: saline) was 107 % of control and 112 % of control, the T/C [13] was 103 % of control and 108 % of control and the T/C [14] was 96 % of control and 100 % of control. The T/C [15] was 88 % of control and 95 % of control.
In the case of `O=C(Nc1ccc(C2=NCCN2)cc1)c1cccc(C(=O)Nc2ccc(C3=NCCN3)cc2)c1`, the T/C [4] is reported as 260 % of control and 300 % of control and the T/C [5] is reported as 257 % of control and 260 % of control.
In the case of `C=C1C[C@H]2[C@@H]3C=C(C)C4=CC(=O)CC[C@]4(C)[C@H]3CC[C@]2(C)[C@@]1(OC(C)=O)C(C)=O`, the T/C (dose: 62.5 mg/kg/injection, schedule: Q01DX010 (sc), vehicle: steriod suspending solution) is reported as 113 % of control, the T/C (dose: 125.0 mg/kg/injection, schedule: Q01DX010 (sc), vehicle: steriod suspending solution) is reported as 102 % of control and the T/C (dose: 250.0 mg/kg/injection, schedule: Q01DX010 (sc), vehicle: steriod suspending solution) is reported as 89 % of control. The T/C (dose: 500.0 mg/kg/injection, schedule: Q01DX010 (sc), vehicle: steriod suspending solution) was 94 % of control.
In the case of `Nc1nc(=S)c2[nH]cnc2[nH]1`, the T/C (dose: 1.25 mg/kg/injection, schedule: Q01DX010 (ip), vehicle: saline) is reported as 300 % of control and the T/C [11] is reported as 93 % of control.
For `Nc1nc2n[nH]nc2c(=O)[nH]1`, the T/C (dose: 25.0 mg/kg/injection, schedule: Q01DX010 (ip), vehicle: alkali diluted with saline) was 188 % of control and 225 % of control, the T/C [1] was 253 % of control and the T/C (dose: 50.0 mg/kg/injection, schedule: Q01DX010 (ip), vehicle: alkali diluted with saline) was 180 % of control and 250 % of control. The T/C [2] was 186 % of control, the T/C (dose: 100.0 mg/kg/injection, schedule: Q01DX010 (ip), vehicle: alkali diluted with saline) was 190 % of control and 246 % of control and the T/C (dose: 200.0 mg/kg/injection, schedule: Q01DX010 (ip), vehicle: alkali diluted with saline) was 185 % of control.
In the case of `CS(=O)(=O)OCCCl`, the T/C (dose: 18.8 mg/kg/injection, schedule: Q01DX010 (ip), vehicle: saline) is reported as 100 % of control, the T/C (dose: 37.5 mg/kg/injection, schedule: Q01DX010 (ip), vehicle: saline) is reported as 111 % of control and the T/C (dose: 75.0 mg/kg/injection, schedule: Q01DX010 (ip), vehicle: saline) is reported as 116 % of control. For the same molecule, the T/C (dose: 150.0 mg/kg/injection, schedule: Q01DX010 (ip), vehicle: saline) was 220 % of control and 269 % of control.
For `CC(=O)O[C@]1(C(C)=O)CC[C@H]2[C@@H]3C[C@H](C)C4=CC(=O)C=C[C@]4(C)[C@@]3(F)[C@@H](O)C[C@@]21C`, the T/C [6] was 96 % of control, the T/C [7] was 104 % of control and the T/C [8] was 88 % of control. For the same molecule, the T/C (dose: 100.0 mg/kg/injection, schedule: Q01DX010 (sc), vehicle: steriod suspending solution) was 88 % of control.
For `CN(C)c1ccc(/C=C/c2ccnc3ccccc23)cc1`, the T/C [11] was 96 % of control and 112 % of control, the T/C [12] was 112 % of control and the T/C [16] was 112 % of control. The T/C [17] was 100 % of control.
In the case of `Cc1cc(N(CCCl)CCCl)ccc1N=Nc1ccccc1C(=O)O`, the T/C [12] is reported as 150 % of control and 183 % of control, the T/C [16] is reported as 175 % of control and the T/C [17] is reported as 104 % of control and 225 % of control.

Source: PubChem BioAssay AID238 (DTP/NCI, 2004)
